Reference: patent publication US9828386B2 (priority 2013, dated 2017)
Read-outs that look alike come from different tables or passages of the source.

Columns and labels:
Assay in all cases: cells
Assay type in all cases: cell-based
[1] = tested on: Hela cell line; details: read-out: IC50 (μM) Hela
Procedure: (§1) Test of compounds of embodiment of the present invention on inhibiting tumor cell activity
(§2) 3, cell lines: A549, BGC823, Hela cell line and normal human hepatocytes which are available from Wu Han boster Co., Ltd.;
(§3) A549, BGC823, Hela cell line and normal human hepatocytes in logarithmic growth phase are subjected to 1000 rpm centrifugation for 5 min, supernatant is then discarded, moderate medium is suspended, the cell concentration is adjusted to 3.5×10^4/well, the cells were seeded in 96-wells culture plate, and following experimental groups are set:
(§4) a negative control group; 35 test groups with same concentration (ie: groups of Compound (1) to Compound (35)); three control groups: groups of podophyllotoxin, 4′-demethylepipodophyllotoxin and etoposide.
(§5) Taking RPMI1640 containing 10% of calf serum as nutrient solution, 0.10 mL of cells per well is incubated under conditions of 37° C., 5% CO2 and saturated humidity for 24 h to nearly be covered, then the nutrient solution is discarded. […] 100 μl of DMSO is added to each well, then vibrated at 37° C. by shaker table for 30 min, then measuring absorbance (OD) at 492 nm, calculating MTT ratio=OD value of drug group/OD value of the negative control group.

[2] = tested on: A549 cell line; details: read-out: IC50 (μM) A549
Procedure: as §1, §2, §3, §4, §5

[3] = tested on: BGC823 cell line; details: read-out: IC50 (μM) BGC823
Procedure: as §1, §2, §3, §4, §5

[4] = Hela cells, MTT, 48 h cultivation
[5] = A549 cells, MTT, 48 h cultivation
[6] = BGC823 cells, MTT, 48 h cultivation

Compound | IC50 [1, 4] [µM] | IC50 [2, 5] [µM] | IC50 [3, 6] [µM] | IC50 ([1]; Homo sapiens, HeLa, 48 h) [µM] | IC50 ([2]; Homo sapiens, A549, 48 h) [µM] | IC50 ([3]; Homo sapiens, BGC-823, 48 h) [µM]
COc1cc(C2c3cc4c(cc3C(Sc3ccncc3)C3COC(=O)C23)OCO4)cc(OC)c1O (stereo not drawn) [Compound 25, 4-S-(pyridin-4)-4-deoxy-4′-demethylepipodophyllotoxin] | 0.73 ± 0.05 | 2.66 ± 0.27 | 4.76 ± 0.12 |  |  | 
COc1cc(C2c3cc4c(cc3C(Sc3ncccn3)C3COC(=O)C23)OCO4)cc(OC)c1O (stereo not drawn) [Compound 26, 4-S-(pyrimidine-2)-4-deoxy-4′-demethylepipodophyllotoxin] | 0.25 ± 0.32 | 4.28 ± 0.11 | 0.51 ± 0.53 |  |  | 
COc1cc(C2c3cc4c(cc3C(Sc3nccc(N)n3)C3COC(=O)C23)OCO4)cc(OC)c1O (stereo not drawn) [Compound 27, 4-S-(4-amino-pyrimidine-2)-4-deoxy-4′-demethylepipodophyllotoxin] | 1.33 ± 0.39 | 3.27 ± 0.17 | 0.22 ± 0.03 |  |  | 
COc1cc(C2c3cc4c(cc3C(Sc3nc(C)cc(C)n3)C3COC(=O)C23)OCO4)cc(OC)c1O (stereo not drawn) [Compound 28, 4-S-(4,6-dimethyl-pyrimidine-2)-4-deoxy-4′-demethylepipodophyllotoxin] | 5.26 ± 0.62 | 1.27 ± 1.12 | 4.29 ± 0.83 |  |  | 
COc1cc(C2c3cc4c(cc3C(Sc3nc5ccccc5s3)C3COC(=O)C23)OCO4)cc(OC)c1O (stereo not drawn) [Compound 29, 4-S-(benzothiazol-2)-4-deoxy-4′-demethylepipodophyllotoxin] | 4.57 ± 0.16 | 0.85 ± 0.93 | 1.37 ± 0.43 |  |  | 
COc1cc(C2c3cc4c(cc3C(Sc3nc5ccccc5[nH]3)C3COC(=O)C23)OCO4)cc(OC)c1O (stereo not drawn) [Compound 30, 4-S-(benzimidazole-2)-4-deoxy-4′-demethylepipodophyllotoxin] | 0.51 ± 0.13 | 1.24 ± 0.27 | 0.31 ± 0.16 |  |  | 
COc1cc(C2c3cc4c(cc3C(Sc3nc5ccccc5o3)C3COC(=O)C23)OCO4)cc(OC)c1O (stereo not drawn) [Compound 31, 4-S-(benzoxazole-2)-4-deoxy-4′-demethylepipodophyllotoxin] | 0.13 ± 0.01 | 1.46 ± 0.89 | 1.36 ± 0.2 |  |  | 
COc1cc(C2c3cc4c(cc3C(Sc3n[nH]c(NS(=O)(=O)c5ccc(C)cc5)n3)C3COC(=O)C23)OCO4)cc(OC)c1O (stereo not drawn) [Compound 32, 4-S-[3-N-(4-methyl-benzenesulfonamide-)-1,2,4-triazole-5-]-4-deoxy-4′-demethylepipodophyllotoxin] | 0.53 ± 0.17 | 1.67 ± 0.28 | 0.67 ± 0.22 |  |  | 
COc1ccc(S(=O)(=O)Nc2nc(SC3c4cc5c(cc4C(c4cc(OC)c(O)c(OC)c4)C4C(=O)OCC34)OCO5)n[nH]2)cc1 (stereo not drawn) [Compound 33, 4-S-[3-N-(4-methoxy-benzenesulfonamide-)-1,2,4-triazole-5-]-4-deoxy-4′-demethylepipodophyllotoxin] | 1.56 ± 0.88 | 1.37 ± 2.15 | 1.27 ± 0.53 |  |  | 
COc1cc(C2c3cc4c(cc3C(Sc3nnc(NS(=O)(=O)c5ccc(C)cc5)s3)C3COC(=O)C23)OCO4)cc(OC)c1O (stereo not drawn) [Compound 34, 4-S-[2-N-(4-methyl-benzenesulfonamide-)-1,3,4-thiadiazole-5-]-4-deoxy-4′-demethylepipodophyllotoxin] | 2.11 ± 0.34 | 5.89 ± 0.74 | 0.85 ± 0.43 |  |  | 
COc1ccc(S(=O)(=O)Nc2nnc(SC3c4cc5c(cc4C(c4cc(OC)c(O)c(OC)c4)C4C(=O)OCC34)OCO5)s2)cc1 (stereo not drawn) [Compound 35, 4-S-[2-N-(4-methoxy-benzenesulfonamide-)-1,3,4-thiadiazole-5-]-4-deoxy-4′-demethylepipodophyllotoxin] | 1.19 ± 0.57 | 0.84 ± 0.62 | 2.23 ± 0.69 |  |  | 
COc1cc([C@@H]2c3cc4c(cc3[C@H](O)[C@H]3COC(=O)[C@H]23)OCO4)cc(OC)c1OC [podophyllotoxin, reference compound] |  |  |  | 55.53 ± 0.24 | 67.18 ± 0.24 | 75.81 ± 0.73
